In patent US20100099731A1, “Use of Endothelial Interrupters in the Treatment of Neurodegenerative Diseases” (Texas Tech University System, priority 2008, published 2010):
Entries after “also recorded” stand apart in the source; their conditions may differ.

Legend:
[1] = tested on: brain-derived endothelial cells (EC150); test: MMP-9 release from brain endothelial cells, indirect ELISA; assay type: cell-based; details: 0-500 nM Sunitinib malate, 4 h; p<0.001 vs cells without drug
[2] = tested on: Endothelial cells; test: Menadione-mediated TNF-α release from endothelial cells, indirect ELISA; assay type: cell-based; details: 500 nM Sunitinib malate 4 h prior to (Pre), simultaneously (Co) or after (Post) 4 h menadione 25 μM
[3] = tested on: Endothelial cells; test: Menadione-induced MMP-9 release from endothelial cells, indirect ELISA; assay type: cell-based
[4] = tested on: AD transgenic mouse APPSWE 2576; test: Radial arm maze, AD transgenic mice treated with Sunitinib malate; assay type: in vivo; details: Sunitinib malate 40 mg/kg daily in diet; vs untreated AD mice receiving vehicle; p<0.05
[5] = approved treatments for AD; cited from earlier work
[6] = In vivo cognition with acetaminophen; details: in vivo work
[7] = tested on: rat brain endothelial cells; test: Cell viability (MTT) of brain endothelial cells challenged with menadione; details: acetaminophen pretreatment, then 25 μM menadione 2-3 h; p<0.001 vs cells without acetaminophen
Experimental: Cell viability was determined with MTT assay. Number of viable cells in untreated cells (control) was defined as 100%. Data are mean±SD of 3 separate experiments.

[8] = tested on: Rats; test: Infusion of human apolipoprotein-E4 into rats; assay type: in vivo, rat; details: 0.6 ng/hr, i.c.v., 56 days
[9] = tested on: Rat neuronal cortical cell cultures; details: thrombin 100 nM or SNP 10 μM, 24 h
[10] = tested on: cultured brain endothelial cells; test: TIMP expression in cultured brain endothelial cells; assay type: cell-based
Source text: Angiogenic proteins are expressed by brain blood vessels in AD. Data are emerging to support the idea that mediators of angiogenesis are found in the AD brain. The objective of this study is to compare the expression of the angiogenic mediator's vascular endothelial growth factor (VEGF), angiopoietin, and matrix metalloproteinases (MMPs) in the microcirculation of AD patients and age-matched controls. […] AD-derived microvessels also release higher levels of MMP-2 and MMP-9 compared to controls. […] In this regard we find high levels of the tissue inhibitor of matrix metalloproteinases-1 (TIMP-1) in AD, but not control vessels.

[11] = tested on: Rats; test: Intracerebroventricular thrombin infusion in rats, apolipoprotein-E levels; assay type: in vivo, rat; details: thrombin 100 nM, 0.25 microl/hr, 28 days, i.c.v.; vs vehicle, p<0.001
Source text: Chronic thrombin exposure results in an increase in apolipoprotein-E levels. Studies have shown that individuals with both a history of traumatic brain injury and inheritance of apolipoprotein E-4 (ApoE4) allele are associated with a poor neurologic outcome and an increased risk for Alzheimer's disease. We assessed the hypothesis that thrombin released during brain injury causes an increase in apolipoprotein-E levels and such increase in the levels of apolipoprotein-E4 isoform may have amyloidogenic effects. Rats received either thrombin (100 nM, 0.25 microl/hr, 28 days) or vehicle via intracerebroventricular infusion. […] Such increase in Apolipoprotein-E4 isoform facilitates beta-amyloid deposition and cognitive deficits (Reference, item # 9).

[12] = tested on: cultured brain endothelial cells; test: HIF1-α expression in cultured brain endothelial cells; assay type: cell-based
Source text: Thrombin and inflammatory proteins are elevated in Alzheimer's disease microvessels: Implications for disease pathogenesis. […] The objective of this study is to determine whether levels of neurotoxic (thrombin) and inflammatory proteins (IL-8; integrins αvβ3 and αvβ5) are altered in microvessels isolated from AD patients compared to levels in vessels obtained from non-demented age-matched controls. We also evaluate expression, in AD and control microvessels, of the transcription factor hypoxiainducible factor 1-α (HIF1-α), which regulates pro-inflammatory gene expression, and the regulation of HIF1-α expression by thrombin in cultured brain endothelial cells.

[13] = tested on: Rats; test: Intracerebroventricular thrombin infusion in rats, radial eight-arm maze and neuropathology; assay type: in vivo, rat
Experimental: Thrombin, a mediator of neurotoxicity and memory impairment. Thrombin has been found in neuritic plaques in AD. Also, traumatic brain injury, where neurons are exposed to high thrombin levels is associated with an increased incidence of AD. Our objective was to determine the effects of thrombin administered in vivo on cognitive function and neuropathology. Rats were trained using a radial eight-arm maze and then thrombin (25 or 100 nM, […], 28 days) or vehicle was delivered via intra cerebroventricular infusion. […] Thrombin-induced changes in cognitive function and ventricular enlargement were inhibited by hirudin.

[14] = molecular target: thrombin (Homo sapiens, UniProt P00734); test: ApoE4 fragment generation by endothelial cell conditioned media, western blot; assay type: biochemical; details: conditioned medium incubated with apoE4 for 24 h
Experimental: Injured endothelial cells release thrombin and generate neurotoxic apolipoprotein E fragments. The objective of this study was to determine if injured brain endothelial cells could be a source of thrombin and neurotoxic apoE fragments. Brain endothelial cells were injured by oxidant and/or inflammatory stress. This was accomplished by incubating cultured endothelial cells with either, sodium nitroprusside (SNP), inflammatory cocktail (LPS, […], IL-6, IFN-γ, TNFα) or both for 24 h. The conditioned medium was then (a) analyzed for thrombin using a chromogenic thrombin activity assay, (b) incubated with apoE4 for 24 h and then analyzed by western blot for detection of apoE4 fragments, or (c) incubated with apoE4 and added to neuronal cultures for 24 h. […] This pattern was consistent with that observed using purified thrombin and was inhibited by the thrombin inhibitor hiruidin.

[15] = tested on: cultured brain endothelial cells; test: IL-1β and TNFα expression in brain endothelial cells treated with TGF-β, ELISA and western blot; assay type: cell-based; details: vs untreated endothelial cells
Source text: Cerebrovascular TGF-β contributes to inflammation in the AD brain. TGF-β plays a central role in the response of the brain to injury and is increased in the brain in AD. In this study, we determined whether expression of TGF-β was abnormal in the microvasculature in AD and whether TGF-β affected vascular production of pro-inflammatory cytokines, IL-1β and TNFα. Results from western blot analysis and ELISA indicated a higher level of TGF-β in AD vessels compared to controls. To determine whether TGF-β affects vascular release of inflammatory factors, cultured brain endothelial cells were treated with TGF-β and levels of IL-1β and TNFα determined. […] Studies have shown that TGF-β mediated signaling is critical to controlling the “angiogenic switch”.

[16] = 100 nM thrombin, 0.25 μg/h, 28 days, intra cerebroventricular infusion
[17] = rats, thrombin intra cerebroventricular infusion

CCN(CC)CCNC(=O)c1c(C)[nH]c(/C=C2\C(=O)Nc3ccc(F)cc32)c1C [Sunitinib malate, Butanedioic acid, hydroxy-, (2S)-, compound with N[2-(diethylamino)ethyl]-5-[(Z)-(5-fluoro-1,2-dihydro-2-oxo-3H-indol-3-ylidine)methyl]-2,4-dimethyl-1H-pyrrole-3-carboxamide (1:1)]
release of matrix metalloproteinase-9 (MMP-9) [1]: significantly decreased release of matrix metalloproteinase-9 (MMP-9) | menadione-mediated release of TNF-α [2]: decreased release of both MMP-9 (FIG. 4) and TNFα; also recorded: decreased menadione-mediated release of TNF-α | menadione-induced release of MMP-9 ([3]; 500 nM Sunitinib malate 4 h prior to (Pre), simultaneously (Co) or after (Post) 4 h menadione 25 μM): decreased release of both MMP-9; also recorded: significantly decreased release of MMP-9 | cognitive performance: total number of arm entries to complete the 8 arm radial arm maze [4]: progressively require fewer arm entries to complete an 8 arm radial arm maze; also recorded: perform significantly (p<0.05) better than AD mice not receiving the drug

CC1=CC(=O)c2ccccc2C1=O [menadione]
release of MMP-9 and TNFα ([3]; brain endothelial cells exposed to menadione): increased release of both MMP-9 and the inflammatory cytokine TNFα

CC12CC3CC(C)(C1)CC(N)(C3)C2 [Memantine]
Side Effects [5]: Headache, constipation.

CC(=O)Nc1ccc(O)cc1 [acetaminophen, 4′-hydroxyacetanilide]
cognition [6]: improved cognition | cell survival (MTT) [7]: significant increase in cell survival; also recorded: Cell survival increases significantly

ApoE4: human apolipoprotein-E4 isoform infused i.c.v. into rats
beta-amyloid deposition and GFAP-positive astrocytes [8]: beta-amyloid deposition and increased the number of GFAP-positive astrocytes | spatial memory [8]: significant spatial memory deficits

thrombin
cyclin D1 mRNA expression [9]: increase in cyclin D1 expression | neuronal apoptosis (nucleosome ELISA) [9]: evoke neuronal cell death | TIMP-1 expression [10]: up regulation of TIMP-1 | apolipoprotein-E levels in hippocampus [11]: increased apolipoprotein-E levels in hippocampus | HIF1-alpha expression [12]: increased expression of HIF1-alpha | cognitive function [13, 16]: cognitive impairments including deficits in reference memory and an increase in task latency | neuropathology [13, 16]: enlargement of cerebral ventricles, an increased number of TUNEL-positive cells, astrogliosis, and an increase in the immunoreactivity for phosphorylated neurofilament, and apolipoprotein-E fragments

hirudin
generation of apoE4 fragments (20-29 kDa) by endothelial cell conditioned media [14]: inhibited | thrombin-induced changes in cognitive function [13, 17]: inhibited | thrombin-induced ventricular enlargement [13, 17]: inhibited

TGF-β
endothelial expression of IL-1β and TNFα [15]: robust endothelial expression of these factors
